Data published in patent US20070167424A1, “Aztreonam L-lysine and methods for the preparation thereof” (priority 2003, published 2007).

Legend:
[1] = Storage stability: impurity content by HPLC after storage; format: physicochemical
Method: (§1) The Aztreonam L-lysine obtained using these methods was stable in the sense that during 3 months at 2-8° C.:
2. no impurity exceed 0.3 area %.
The impurity content of Aztreonam lysine salt using the HPLC method is determined as follows:
a. Aztreonam Lysine salt sample is dissolved in 0.02 M KH2PO4 buffer solution (pH adjusted 2.0 with 25 w/w % phosphoric acid) diluent,
b. The sample solution (ca. 10 μl) is injected into a 100.0 mm×4.0 mm, 3 μm RP-1 8 HPLC column,
c. Gradient eluting with a mixture of 0.02 M KH2PO4 buffer solution (pH adjusted 3.0 with 25 w/w % phosphoric acid) (A) and acetonitrile (B) according to the following profile:
d. The amounts of each impurity was measured at 230 nm wavelength with a UV detector and appropriate recording device.
e. The amount of each impurity was calculated referring to an Aztreonam working standard at a concentration of […].
In the above method, Aztreonam has a retention time of about 10.2 minutes.

[2] = Storage stability: assay of Aztreonam by HPLC after storage; format: physicochemical
Method: as §1
1. the assay of Aztreonam was maintained constant in the limit 60-66%; and The assay of Aztreonam Lysine salt using the HPLC method was determined as follows: a. Dissolving Aztreonam Lysine salt sample in a mixture of 0.02 M KH2PO4 buffer solution (pH adjusted 3.0 with 25 w/w % phosphoric acid) and methanol (80:20) diluent, b. Injecting the sample solution (ca. 10 μl) into a 50.0 mm×4.6 mm, 3 μm RP-18 HPLC column, c. Isocratic eluting at 1.5 ml/min with a mixture of 0.02 M KH2PO4 buffer solution (pH adjusted 3.0 with 25 w/w % phosphoric acid) and methanol in a 83:17 v/v % ratio. d. Measuring of the amounts of each impurity at 270 nm wavelength with a UV detector and appropriate recording device. e. Calculating of the assay referring to the Aztreonam working standard at a concentration of 100 [g/ml.
In the above method, Aztreonam has a retention time of about 2.3 minutes

[3] = after storage for three months at about 2-8° C.

| SMILES | does not contain any impurity exceeding [1, 3] | maintains at least about ... of the Aztreonam [2, 3] | no impurity exceed (largest single impurity) ([1]; during 3 months at 2-8° C.) | assay of Aztreonam maintained constant in the limit ([2]; during 3 months at 2-8° C.) |
| --- | --- | --- | --- | --- |
| C[C@H]1[C@H](NC(=O)/C(=N\OC(C)(C)C(=O)O)c2csc(N)n2)C(=O)N1S(=O)(=O)O.NCCCC[C@H](N)C(=O)O [Example 2, Aztreonam L-lysine salt] | ≤ 0.3 area % | at least 63 weight % | – | – |
| C[C@H]1[C@H](NC(=O)/C(=N\OC(C)(C)C(=O)O)c2csc(N)n2)C(=O)N1S(=O)(=O)O.NCCCC[C@H](N)C(=O)O [Aztreonam L-lysine] | – | – | ≤ 0.3 area % | 60-66% |
